≈ marks a conversion by molar mass, not a printed value.
Experiments:
COX-2 = molecular target: T1, COX-2 (Mus musculus, UniProt Q05769); assay: Evaluation of COX-2 activity: PGE2 formation in aspirin-treated, LPS-stimulated mouse peritoneal macrophages; type: cell-based
T1 sequence (Q05769 18-604): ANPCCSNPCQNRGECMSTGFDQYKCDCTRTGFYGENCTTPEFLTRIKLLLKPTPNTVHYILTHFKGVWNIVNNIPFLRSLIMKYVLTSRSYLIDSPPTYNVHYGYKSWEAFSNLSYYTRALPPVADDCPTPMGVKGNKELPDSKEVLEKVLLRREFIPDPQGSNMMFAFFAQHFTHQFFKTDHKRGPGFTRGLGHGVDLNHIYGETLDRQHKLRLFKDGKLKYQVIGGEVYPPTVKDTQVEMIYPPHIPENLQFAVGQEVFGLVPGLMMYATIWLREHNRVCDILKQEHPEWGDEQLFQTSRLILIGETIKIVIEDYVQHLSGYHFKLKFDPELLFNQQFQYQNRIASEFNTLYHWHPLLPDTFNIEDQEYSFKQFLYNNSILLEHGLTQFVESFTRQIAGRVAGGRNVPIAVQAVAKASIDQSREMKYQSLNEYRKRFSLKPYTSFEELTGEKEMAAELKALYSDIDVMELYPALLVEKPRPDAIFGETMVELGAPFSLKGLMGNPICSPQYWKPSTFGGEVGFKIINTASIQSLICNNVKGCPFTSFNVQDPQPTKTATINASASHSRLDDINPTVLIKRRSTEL
Method in brief: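 PGE2 output, quantified by radio- or enzyme-immunoassay, was read after 10 min exposure of cells to compound with 10 μM arachidonic acid. Cells were mouse peritoneal macrophages, COX-1 knocked out with 500 μM aspirin and COX-2 induced by 10 μg/ml LPS over 16 h. IC50 derived from 4–5 concentrations.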

COX-1 = molecular target: T2, COX-1 (Mus musculus, UniProt P22437); assay: Evaluation of COX-1 activity: PGE2 formation in mouse peritoneal macrophages without aspirin and LPS treatment; type: cell-based
T2 sequence (P22437 27-602): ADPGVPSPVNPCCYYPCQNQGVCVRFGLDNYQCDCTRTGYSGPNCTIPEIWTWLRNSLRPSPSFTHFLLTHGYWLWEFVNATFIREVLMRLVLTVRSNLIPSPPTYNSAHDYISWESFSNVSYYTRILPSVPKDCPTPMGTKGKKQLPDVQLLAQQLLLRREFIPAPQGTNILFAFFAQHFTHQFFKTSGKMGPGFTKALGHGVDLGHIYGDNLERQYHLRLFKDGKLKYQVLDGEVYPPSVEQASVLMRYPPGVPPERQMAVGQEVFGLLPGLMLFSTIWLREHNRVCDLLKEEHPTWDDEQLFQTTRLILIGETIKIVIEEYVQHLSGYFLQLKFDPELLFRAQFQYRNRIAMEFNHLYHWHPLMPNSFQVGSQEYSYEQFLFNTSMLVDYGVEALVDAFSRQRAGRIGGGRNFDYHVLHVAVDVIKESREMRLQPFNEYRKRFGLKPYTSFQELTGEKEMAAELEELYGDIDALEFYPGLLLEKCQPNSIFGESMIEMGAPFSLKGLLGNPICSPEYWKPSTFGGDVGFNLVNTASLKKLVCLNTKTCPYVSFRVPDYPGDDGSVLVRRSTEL
Method in brief: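 Peritoneal macrophages from C57BL/6 mice, without aspirin or LPS treatment, were plated at 1×10^6 cells/ml and fixed 2 h at 37 °C. Cells were preincubated 10 min, then given 10 μM arachidonic acid plus compound for 10 min; PGE2 was measured by RIA or EIA. IC50 came from 4–5 concentrations.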

[1] = Pharmacokinetic studies in rats; type: in vivo, rat; settings: metabolite in plasma after oral administration of Example 393 to a SD rat at 10 mg/kg body weight (FIG. 1)
Procedure: An appropriate amount of a compound suspended 1% aqueous methylcellulose solution was administered to a male SD rat by oral gavage. Blood samples were collected from the retro-orbital sinus at designated times over 24˜48 hours. Plasma was separated from each blood sample by centrifugation and the plasma was stored at 4° C. until analysis. The plasma samples prepared thereby were subjected to analysis by reverse phase HPLC (high performance liquid chromatography) using an appropriate internal standard.

IC50, μg/ml COX-2 (COX-2): 0.01 µg/mL (≈ 0.0265 µM)
IC50, μg/ml COX-1 (COX-1): 2 µg/mL (≈ 5.31 µM)
amounts detected in the plasma [1]: appreciable amounts
melting point: 151 to 152 °C
SMILES: CC1(C)OC(c2ccc(S(C)(=O)=O)cc2)=C(c2cccc(Cl)c2)C1=O [Example 62, 4-(3-Chlorophenyl)-2,2-dimethyl-5-{4-(methylsulfonyl)phenyl}-3(2H)-furanone]
